“Also recorded” adds a separate entry of the source.
Tests used:
isolated rat adipocytes [1] = assay: glucose transport assay (2-deoxy-D-[3H]glucose); format: cell-based; settings: 50 μM
Experimental: (§1) Glucose transport was determined as described in “Müller, G. et al., (1994) J. Cell Biol. 126: 1267-1276” by incubation of 10,000-20,000 washed adipocytes with 2-deoxy-D[2,6-^3H]glucose at 50 μM final conc. (0.33 μCi/ml) in 50-μl portions for 20 min at 37° C. in the absence or presence of 20 μM cytochalasin B.
(§2) Table 3: Isolated rat adipocytes were incubated in the presence of methyl-β-cyclodextrin (m-β-CD, 10 mM, 50 min), CBDP (300 μM, electroporation, followed by washing and subsequent incubation for 30 min), PIG41 (10 μM, 15 min), sodium orthovanadate (1 mM, 15 min), trypsin (10 μg/ml, 15 min followed by treatment with 0.5 M NaCl and subsequent washing) and N-ethylmaleimide (1 mM, 5 min followed by addition of DTT). After addition of GPI-2350 (50 μM final conc.) to one half of the adipocyte suspension and further incubation (60 min, 37° C.), portions of the cells were assayed for 5′-Nuc activity in the isolated IcDIGs. The increase in 5′-Nuc during the basal incubation was set at 100 arb. units. Other portions of the cells (after 15 min incubation) were assayed for glucose transport which was set at 100 arb. units for the basal incubation. Means+SD of at least 3 independent cell incubations with activity measurements in triplicate each are given.
(§3) FIG. 8: Effect of GPI-2350 on the glimepiride/insulin-induced metabolic activity. Isolated rat adipocytes were treated (5 min, 37° C.) without or with GPI-2350 (Panel A, 50 μM; Panel B, increasing conc.; Panel C, 5 μM, 50 μM) and then incubated (15 min, 37° C.) in the absence or presence of insulin (Ins, 10 nM) or glimepiride (Gli, 20 μM or increasing conc.) as indicated. The adipocytes were then assayed for glucose transport and isoproterenol-induced lipolysis. The activity is given relative to the absence of GPI-2350 in the control reaction (Panels A, basal) or in the insulin- and glimepiride-stimulated state (Panels B and C, set at 100). Means+SD of at least 5 independent cell incubations with activity measurements in triplicate each are given.

[2] = tested on: pp59Lyn and Gce1 interaction with caveolin-1 in rat adipocytes; assay: dissociation of signaling proteins from caveolin (caveolin-1 immunoprecipitates of hcDIGs); format: cell-based; settings: 50 μM
Experimental: Solubilized DIGs (see above, 5-20 μg protein) were precleared by incubation with protein A/G-Sepharose and subsequent centrifugation (10,000×g, 5 min). The supernatant was incubated with anti-caveolin-1 antibodies (1:1000) preadsorbed on protein A/G-Sepharose in 1 ml of 10 mM Tris/HCl (pH 7.4), 150 mM NaCl, 1% TX-100 for 1 h at 4° C. The immune complexes were washed twice with the same buffer and then twice with buffer lacking TX-100 and finally subjected to SDS-PAGE performed in the absence of β-mercaptoethanol. The recovery of immunoprecipitated caveolin was normalized by homologous immunoblotting with anti-caveolin antibodies of the same blot following stripping of the membrane.
Polypeptides separated by SDS-PAGE were transferred to polyvinylidene difluoride membranes using the semidry procedure as described in “Müller, G. et al., (2001) Mol. Cell. Biol. 21: 4553-4567”. Washed membranes were incubated with anti-caveolin-1 (1:2000), anti-pp59^Lyn (1:1250), anti-aP (1:500), anti-5′-Nuc (1:750) and anti-IRS-1 (1:2000) antibodies for 4 h at 15° C. Washed membranes were incubated with horseradish peroxidase-coupled secondary goat anti-mouse (1:2000) or goat anti-rabbit IgG (1:4000) antibodies. Labeled proteins were visualized by enhanced chemiluminescence.
FIG. 6: Effect of GPI-2350 on the glimepiride/insulin-induced dissociation of signaling proteins from caveolin. Isolated rat adipocytes were treated (5 min, 37° C.) without or with GPI-2350 (left panels, 50 μM; right panels, increasing conc.) and then incubated (120 min, 37° C.) in the absence or presence of insulin (10 nM) or glimepiride (20 μM). hcDIGs were prepared from the adipocytes and then solubilized. Caveolin-1 immunoprecipitates prepared from the solubilized hcDIGs were assayed for the presence of pp59^Lyn and Gce1 by immunoblotting and photoaffinity-labeling, respectively. […]

[3] = tested on: glucose transport, rat adipocytes; assay: Glucose transport in rat adipocytes; format: cell-based; settings: GPI-2350 50 μM
Experimental: as §1
Subsequently, we studied whether the differential effects of GPI-PLC inhibition on IRS-1 tyrosine phosphorylation in response to insulin and glimepiride is reflected in their metabolic activity in insulin target cells. For this, isolated rat adipocytes were pretreated with GPI-2350 prior to challenge with either stimulus, and then assayed for glucose transport and isoproterenol-induced lipolysis (FIG. 8). […] These differential effects of GPI-PLC inhibition were confirmed by analysis of the effect of GPI-2350 on the inhibition of isoproterenol-induced lipolysis by glimepiride and insulin when measured as release of NBD-FA instead of glycerol from rat adipocytes prelabeled with this fluorescent fatty acid derivative (FIG. 9).
as §2, §3

isolated rat adipocytes [4] = assay: isoproterenol-induced lipolysis (glycerol release); format: cell-based
Experimental: Electroporation was performed as described in “Müller, G. et al., (2000) Mol. Cell. Biol. 20: 4708-4723”. Lipolysis was determined as release of glycerol or fluorescent NBD-FA from prelabeled and isoproterenol-stimulated adipocytes as described in “Müller, G. et al., (2003) Biochimie 85: 1245-1256”. Gce1 was detected by photolabeling of solubilized plasma membranes or hc/lcDIGs (10-50 μg protein) with 8-N3—[^32P]cAMP and subsequent phosphorimaging as described in “Müller, G. et al., (1994) Biochemistry 33: 12149-12159”. 5′-Nuc, aP and AChE activities were measured according to “Eliakim, R. et al., (1990) Biochim. Biophys. Acta 1355: 293-302”. Protein was determined using the BCA protein determination kit from Pierce (Rockford, Ill.) and BSA as calibration standard. SDS-PAGE was performed using precast gels (Novex, San Diego, Calif.; 10% Bis-Tris resolving gel, morpholinopropanesulfonic acid-SDS running buffer). Lumiimages were evaluated on a LumiImager using LumiImager software (Roche Diagnostics). Phosphor- and fluorescence images were processed and quantified using the Storm 860 PhosphorImager system (Molecular Dynamics, Gelsenkirchen, Germany). Figures were constructed using the ADOBE PHOTOSHOP software (Adobe Systems, Mountain View, Calif.).
FIG. 8: Effect of GPI-2350 on the glimepiride/insulin-induced metabolic activity. […]

[5] = molecular target: phospholipase A2 (honey bee venom) (Apis mellifera, UniProt P00630); format: biochemical; settings: 50 μM
phospholipase A2 (honey bee venom), sequence (P00630 34-167 limits assumed): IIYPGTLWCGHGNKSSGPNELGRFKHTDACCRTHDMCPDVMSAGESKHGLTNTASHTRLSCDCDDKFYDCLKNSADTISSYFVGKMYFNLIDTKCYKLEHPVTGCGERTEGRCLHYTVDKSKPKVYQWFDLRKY

## CCCCCCCCCCCCP1(=O)O[C@@H]2[C@H](O)[C@@H](O)[C@H](O)[C@@H](O)[C@@H]2O1 (stereo partly drawn) [GPI-2350, myo-inositol-1,2-cyclo-dodecylphosphonic acid]
Isolated rat adipocytes [1]
  effect on stimulation of glucose transport in response to glimepiride: almost complete blockade
[2]
  effect on insulin-/glimepiride-induced dissociation of pp59Lyn and Gce1 from caveolin: completely abrogated; also recorded: almost complete blockade
[3]
  glimepiride-stimulated glucose transport with GPI-2350: to lower than control values
Isolated rat adipocytes [4]
  effect on insulin inhibition of lipolysis: only marginally reduced
Isolated rat adipocytes [4]; 50 μM
  effect on inhibition of lipolysis in response to glimepiride: almost complete blockade
[5]
  effect on PLA2: not significantly affected

Reference: US8017350B2, “Glimepiride- and insulin-induced glycosylphosphatidylinositol-specific phospholipase C regulation” (Sanofi-Aventis Deutschland GmbH, priority 2004, dated 2011)
